From patent US9309283B2, “Prodrugs of peptide epoxy ketone protease inhibitors” (Onyx Therapeutics, Inc., priority 2012, dated 2016)

How the values were obtained:
c20s = c20s (Homo sapiens, UniProt P20618+P28074); test: Purified PI IC50, c20s; assay type: biochemical
i20s = i20s (Homo sapiens, UniProt P20618+P28062); test: Purified PI IC50, i20s; assay type: biochemical
[1] = Conversion to drug in human plasma (%) over time; assay type: in vitro ADME
[2] = Buffer conversion rates of prodrugs to Compound B; assay type: physicochemical
[3] = Conversion of prodrugs by Human Liver S9; assay type: in vitro ADME
[4] = Pharmacokinetic comparison of Compound A and prodrug in mouse; assay type: in vivo; conditions: dose 5 mg/kg

COCCOCCOCCOCCC(=O)N/N=C(/[C@H](CC(C)C)NC(=O)[C@H](Cc1ccccc1)NC(=O)[C@H](CC(C)C)NC(=O)[C@H](CCc1ccccc1)NC(=O)CN1CCOCC1)[C@@]1(C)CO1
Purified PI IC50 Slope c20s (c20s; Table G, * = did not converge): inactive

CO/N=C(/[C@H](CC(C)C)NC(=O)[C@H](Cc1ccccc1)NC(=O)[C@H](CC(C)C)NC(=O)[C@H](CCc1ccccc1)NC(=O)CN1CCOCC1)[C@@]1(C)CO1
Purified PI IC50 Slope i20s (i20s; Table G, * = did not converge): inactive

CC(C)C[C@H](NC(=O)[C@H](CCc1ccccc1)NC(=O)CN1CCOCC1)C(=O)N[C@@H](Cc1ccccc1)C(=O)N[C@@H](CC(C)C)/C(=N/OCC(=O)O)[C@@]1(C)CO1
Purified PI IC50 Slope c20s (c20s; Table G, * = did not converge): inactive | Purified PI IC50 Slope i20s (i20s; Table G, * = did not converge): inactive

CC(C)C[C@H](NC(=O)[C@H](CCc1ccccc1)NC(=O)CN1CCOCC1)C(=O)N[C@@H](Cc1ccccc1)C(=O)N[C@@H](CC(C)C)C(=O)[C@](C)(O)COC(=O)c1c(Cl)cccc1Cl
Purified PI IC50 Slope c20s (c20s; Table G, * = did not converge): inactive

COC[C@H](NC(=O)c1cnc(C)s1)C(=O)N[C@@H](COC)C(=O)N[C@@H](Cc1ccccc1)/C(=N/OC)[C@@]1(C)CO1
Purified PI IC50 Slope c20s (c20s; Table H): inactive | Purified PI IC50 Slope i20s (i20s; Table H): inactive | Purified PI IC50 60 minute point i20s (i20s; Table H): inactive

COC[C@H](NC(=O)c1cnc(C)s1)C(=O)N[C@@H](COC)C(=O)N[C@@H](Cc1ccccc1)C(=O)[C@](C)(O)COC(C)=O
Purified PI IC50 Slope c20s (c20s; Table H): inactive | Purified PI IC50 60 minute point c20s (c20s; Table H): inactive | Purified PI IC50 Slope i20s (i20s; Table H): inactive | Purified PI IC50 60 minute point i20s (i20s; Table H): inactive

COC[C@H](NC(=O)c1cnc(C)s1)C(=O)N[C@@H](COC)C(=O)N[C@@H](Cc1ccccc1)C(=O)[C@](C)(O)COC(=O)c1c(Cl)cccc1Cl
Purified PI IC50 Slope c20s (c20s; Table H): inactive | Purified PI IC50 60 minute point c20s (c20s; Table H): inactive | Purified PI IC50 Slope i20s (i20s; Table H): inactive | Purified PI IC50 60 minute point i20s (i20s; Table H): inactive

COC[C@H](NC(=O)c1cnc(C)s1)C(=O)N[C@@H](COC)C(=O)N[C@@H](Cc1ccccc1)C(=O)[C@](C)(O)COP(=O)(c1ccccc1)c1ccccc1
Purified PI IC50 Slope c20s (c20s; Table H): inactive | Purified PI IC50 60 minute point c20s (c20s; Table H): inactive | Purified PI IC50 Slope i20s (i20s; Table H): inactive | Purified PI IC50 60 minute point i20s (i20s; Table H): inactive

COCCOCCOCCOCCOCCOCCOCCOCCn1cc(CNC(=O)c2cccc(S(=O)(=O)OCC(C)(O)C(=O)[C@H](CC(C)C)NC(=O)[C@H](Cc3ccccc3)NC(=O)[C@H](CC(C)C)NC(=O)[C@H](CCc3ccccc3)NC(=O)CN3CCOCC3)c2)nn1 (stereo partly drawn)
Conversion to drug in Human Plasma ([1]; 2 min): 7% | Conversion to drug in Human Plasma ([1]; 30 min): 63% | Conversion to drug in Human Plasma ([1]; 1 hr): 100% | Conversion to drug in Human Plasma ([1]; 2 hr): 95% | Conversion to drug in Human Plasma ([1]; 4 hr): 80%

COCCOCCOCCOCCOCCOCCOCCOCCn1cc(COCCCS(=O)(=O)OCC(C)(O)C(=O)[C@H](CC(C)C)NC(=O)[C@H](Cc2ccccc2)NC(=O)[C@H](CC(C)C)NC(=O)[C@H](CCc2ccccc2)NC(=O)CN2CCOCC2)nn1 (stereo partly drawn)
Conversion to drug in Human Plasma ([1]; 2 min): 2% | Conversion to drug in Human Plasma ([1]; 30 min): 18% | Conversion to drug in Human Plasma ([1]; 1 hr): 58% | Conversion to drug in Human Plasma ([1]; 2 hr): 90% | Conversion to drug in Human Plasma ([1]; 4 hr): 80%

COC[C@H](NC(=O)c1cnc(C)s1)C(=O)N[C@@H](COC)C(=O)N[C@@H](Cc1ccccc1)C(=O)[C@](C)(O)CI [20-1]
Buffer pH = 7.4 % Conversion @ 1 hour [2]: 24%

COC[C@H](NC(=O)c1cnc(C)s1)C(=O)N[C@@H](COC)C(=O)N[C@@H](Cc1ccccc1)C(=O)[C@](C)(O)CCl [20-2]
Buffer pH = 7.4 % Conversion @ 1 hour [2]: 0%

COC[C@H](NC(=O)c1cnc(C)s1)C(=O)N[C@@H](COC)C(=O)N[C@@H](Cc1ccccc1)C(=O)[C@](C)(O)CBr [20-3]
Buffer pH = 7.4 % Conversion @ 1 hour [2]: 23%

COC[C@H](NC(=O)c1cnc(C)s1)C(=O)N[C@@H](COC)C(=O)N[C@@H](Cc1ccccc1)C(=O)[C@](C)(O)COS(=O)(=O)CC(F)(F)F [20-4]
Buffer pH = 7.4 % Conversion @ 1 hour [2]: 21.2%

COC[C@H](NC(=O)c1cnc(C)s1)C(=O)N[C@@H](COC)C(=O)N[C@@H](Cc1ccccc1)C(=O)[C@](C)(O)COS(=O)(=O)c1ccc(F)c(F)c1 [20-5]
Buffer pH = 7.4 % Conversion @ 1 hour [2]: 13.2%

COC[C@H](NC(=O)c1cnc(C)s1)C(=O)N[C@@H](COC)C(=O)N[C@@H](Cc1ccccc1)C(=O)[C@](C)(O)COS(=O)(=O)CC(F)F [20-6]
Buffer pH = 7.4 % Conversion @ 1 hour [2]: 5.7%

CCCCS(=O)(=O)OC[C@@](C)(O)C(=O)[C@H](Cc1ccccc1)NC(=O)[C@H](COC)NC(=O)[C@H](COC)NC(=O)c1cnc(C)s1 [20-7]
Buffer pH = 7.4 % Conversion @ 1 hour [2]: 4.2%

CCCCCCCCS(=O)(=O)OC[C@@](C)(O)C(=O)[C@H](Cc1ccccc1)NC(=O)[C@H](COC)NC(=O)[C@H](COC)NC(=O)c1cnc(C)s1 [20-8]
Buffer pH = 7.4 % Conversion @ 1 hour [2]: 10.8%

COC[C@H](NC(=O)c1cnc(C)s1)C(=O)N[C@@H](COC)C(=O)N[C@@H](Cc1ccccc1)C(=O)[C@@](C)(CI)OC(=O)CCCCSC(C)=O [20-10]
Human Liver S9 % Conversion @ 1 hour [3]: 3%

COC[C@H](NC(=O)c1cnc(C)s1)C(=O)N[C@@H](COC)C(=O)N[C@@H](Cc1ccccc1)C(=O)[C@@](C)(CI)OC(=O)CCCOC(C)=O [20-13]
Human Liver S9 % Conversion @ 1 hour [3]: 11%

COC[C@H](NC(=O)c1cnc(C)s1)C(=O)N[C@@H](COC)C(=O)N[C@@H](Cc1ccccc1)C(=O)[C@@](C)(CI)OC(=O)OCc1oc(=O)oc1C [20-15]
Human Liver S9 % Conversion @ 1 hour [3]: 30%

CCOC(=O)C(=O)O[C@](C)(CI)C(=O)[C@H](Cc1ccccc1)NC(=O)[C@H](COC)NC(=O)[C@H](COC)NC(=O)c1cnc(C)s1 [20-16]
Human Liver S9 % Conversion @ 1 hour [3]: 24%

CCOC(=O)CCC(=O)O[C@](C)(CI)C(=O)[C@H](Cc1ccccc1)NC(=O)[C@H](COC)NC(=O)[C@H](COC)NC(=O)c1cnc(C)s1 [20-17]
Human Liver S9 % Conversion @ 1 hour [3]: 1%

COC[C@H](NC(=O)c1cnc(C)s1)C(=O)N[C@@H](COC)C(=O)N[C@@H](Cc1ccccc1)C(=O)[C@@](C)(CI)OC(=O)COc1ccccc1 [20-19]
Human Liver S9 % Conversion @ 1 hour [3]: 7%

COC[C@H](NC(=O)c1cnc(C)s1)C(=O)N[C@@H](COC)C(=O)N[C@@H](Cc1ccccc1)C(=O)[C@@](C)(CI)OC(=O)OCc1ccc(OC(C)=O)cc1 [20-22]
Human Liver S9 % Conversion @ 1 hour [3]: 28%

COC[C@H](NC(=O)c1cnc(C)s1)C(=O)N[C@@H](COC)C(=O)N[C@@H](Cc1ccccc1)C(=O)[C@@](C)(CI)OC(=O)CCl [20-23]
Human Liver S9 % Conversion @ 1 hour [3]: 22%

COC[C@H](NC(=O)c1cnc(C)s1)C(=O)N[C@@H](COC)C(=O)N[C@@H](Cc1ccccc1)C(=O)[C@@](C)(CI)OC=O [20-24]
Human Liver S9 % Conversion @ 1 hour [3]: 29%

CCOC(=O)O[C@](C)(CI)C(=O)[C@H](Cc1ccccc1)NC(=O)[C@H](COC)NC(=O)[C@H](COC)NC(=O)c1cnc(C)s1 [20-25]
Human Liver S9 % Conversion @ 1 hour [3]: 14%

COC[C@H](NC(=O)c1cnc(C)s1)C(=O)N[C@@H](COC)C(=O)N[C@@H](Cc1ccccc1)C(=O)[C@@](C)(CI)OC(=O)Oc1ccccc1 [20-26]
Human Liver S9 % Conversion @ 1 hour [3]: 32%

CC(C)C[C@H](NC(=O)[C@H](CCc1ccccc1)NC(=O)CN1CCOCC1)C(=O)N[C@@H](Cc1ccccc1)C(=O)N[C@@H](CC(C)C)C(=O)[C@@]1(C)CO1 [Cmpd A, (S)-4-methyl-N—((S)-1-(((S)-4-methyl-1-((R)-2-methyloxiran-2-yl)-1-oxopentan-2-yl)amino)-1-oxo-3-phenylpropan-2-yl)-2-((S)-2-(2-morpholinoacetamido)-4-phenylbutanamido)pentanamide]
[Cmpd A] ([4]; time 1 hr): 0.008 µM | [Cmpd A] ([4]; time 4 hr): BLOQ | [Cmpd A] ([4]; time 6 hr): BLOQ | [Cmpd A] ([4]; time 24 hr): BLOQ

COC[C@H](NC(=O)c1cnc(C)s1)C(=O)N[C@@H](COC)C(=O)N[C@@H](Cc1ccccc1)C(=O)[C@](C)(O)COS(=O)(=O)c1ccc(C)cc1 [compound 21]
Buffer pH = 7.4 % Conversion @ 1 hour [2]: 20.3%

COC[C@H](NC(=O)c1cnc(C)s1)C(=O)N[C@@H](COC)C(=O)N[C@@H](Cc1ccccc1)C(=O)[C@](C)(O)COS(=O)(=O)C1CCOCC1 [compound 22]
Buffer pH = 7.4 % Conversion @ 1 hour [2]: 9.8%

COC[C@H](NC(=O)c1cnc(C)s1)C(=O)N[C@@H](COC)C(=O)N[C@@H](Cc1ccccc1)C(=O)[C@](C)(O)COS(=O)(=O)Cc1ccccc1 [compound 23]
Buffer pH = 7.4 % Conversion @ 1 hour [2]: 9.6%

COC[C@H](NC(=O)c1cnc(C)s1)C(=O)N[C@@H](COC)C(=O)N[C@@H](Cc1ccccc1)C(=O)[C@](C)(O)COS(=O)(=O)Cc1ccccc1 [drawing 371]
Purified PI IC50 Slope i20s (i20s; Table H): inactive
